Broadly, the inhibition is the relative decrease from the control value, in per cent.

Read-outs that look alike come from different tables or passages of the source. A value given as a limit tells only on which side of the number the result lay.

What all share (format): in vivo
Experiment [1] relates to tobacco Mosaic virus (TMV). The experiment is described as follows: Anti-TMV activity: live protection function. To be noted: for inhibition at 500 µg/mL: Tobacco mosaic virus, read-out: Relative inhibition rate (%) Live protection function; for TMV activity: 500µg/mL, compared with ribavirin, Table 4 (all three modes). The procedure: (§1) Determination of anti-tobacco Mosaic virus (TMV) activity by the following procedure:
(§2) The virus crude extract was centrifuged with polyethylene glycol at twice and refrigerated at 4°C for use. The absorbance of 260nm wavelength was determined by ultraviolet spectrophotometer, and the virus concentration was calculated according to the formula. Virus concentration(mg/ml) = (A260 × dilution ratio)(/E)^0.10 1cm^260nm . [formula]
(§3) After weighing, cryptolepine salt derivative, ningnanmycin and the original drug of ribavirin were dissolved in DMF to obtain 1×10^5µg/mL mother solution, and then diluted to the required concentration with 1‰ Tween 80 aqueous solution.
Select the 3-5 leaf stage of tobacco Xanthi nc with uniform growth, spray the whole plant, repeat each treatment 3 times, and set 1‰ Tween80 aqueous solution as control. 24h later, the leaf surface was coated with emery (500 mesh), the disease venom was dipped with a brush, and the whole leaf surface was gently rubbed twice along the direction of the branch pulse by using the brush, the leaf was supported by palm of hand, the virus concentration was 10µg/mL, and the leaf was washed by water after inoculation. After 3 days, the number of disease spots was recorded and the prevnetion and control effect was calculated.

For experiment [2], the system named is tobacco Mosaic virus (TMV). The experiment in a line: Anti-TMV activity: live treatment effect. To be noted: Tobacco mosaic virus, 72 h, read-out: Relative inhibition rate (%) Live treatment effect. The procedure: as §1, §2, §3
Select the 3-5 leaf stage of tobacco Xanthi nc with uniform growth, use a brush to vaccinate the virus in the whole leaf, the virus concentration is 10µg/mL, and the leaf was washed with running water after inoculation. After the leaves were dried, the whole plant was sprayed with test sample, repeated 3 times every treatment, and 1‰ Tween 80 aqueous solution was set as control. After 3 days, the number of disease spots was recorded and the prevnetion and control effect was calculated.

Experiment [3] concerns tobacco Mosaic virus (TMV). The experiment is described as follows: Anti-TMV activity: living passivation activity test. To be noted: Tobacco mosaic virus, read-out: Relative inhibition rate (%) Living passivation activity test. How it is done: as §1, §2, §3
Select the 3-5 leaf stage of tobacco Xanthi nc with uniform growth, mix the test sample agent with the same volume of virus juice to passivate for 30min, friction inoculation, virus concentration 20µg/mL, the leaf was washed with running water after inoculation, repeat 3 times, set 1‰ Tween 80 aqueous solution as control. 3 days later, the number of disease spots was calculated. [formula]
Anti-tobacco Mosaic virus passivation activity test of all compounds was at a treatment dose of 500µg/mL. The positive control was the commercial anti-plant virus agent viriazole.

Experiment [4] concerns rice sheath blight strains. The experiment is described as follows: Bactericidal activity test: resistance to rice sheath blight (live pot test). To be noted: Oryza sativa, 144 h. How it is done:
Bactericidal activity test, the determination procedure is as follows: Test of resistance to rice sheath blight: Select uniformly growing rice seedlings and spray them on the leaves at the set concentration, set a water sprayring group as blank control, every treatment was repeated twice. After 24h, the rice seedlings were inoculated with rice sheath blight strains and placed at room temperature (25±4°C) for normal management after inoculation. The prevention and control effect was investigated by visual inspection 6 days after inoculation.

Setting [5] is: 400mg/L leaf spray on rice seedlings, inoculated after 24h, visual inspection 6 days after inoculation, read-out: Resistance to rice sheath blight (%)/400mg/L.
The mark [6] stands for this setting: read-out: Resistance to rice sheath blight (%)/400mg/L.
[7] abbreviates: read-out: bactericidal activity against rice sheath blight.
[8] abbreviates: live pot test, summary of Table 5 (400mg/L), read-out: bactericidal activity against rice sheath blight.

Consider `C[n+]1c2ccccc2c(NCC(C)(C)N)c2[nH]c3ccccc3c21` [Example 36], for which the results for the inhibition at 500 µg/mL in experiment [1], in experiment [2] and in experiment [3] were 29.8 ± 2.1%, 30.1 ± 0.2% and 28.7 ± 1.1%, respectively. In addition, the pest or weed control at 400 µg/mL in experiment [4] (setting [5]) worked out at 35 ± 5%.

Consider `CCCNc1c2ccccc2[n+](C)c2c1[nH]c1ccccc12` [Example 23], for which the values for the inhibition at 500 µg/mL in experiment [1], in experiment [2] and in experiment [3] were 33 ± 2.9%, 30.1 ± 1% and 35.2 ± 1.1%, respectively. Also, the pest or weed control at 400 µg/mL in experiment [4] (setting [5]) stood at 30%.

For `Cc1ccc(S(=O)(=O)n2c3ccccc3c3c2cc2ccccc2[n+]3CC2CC2)cc1` [Example 18], the TMV activity entry in experiment [1] is reported as “better TMV activity than the ribavirin”. In addition, the inhibition at 500 µg/mL in experiment [1] came out at 45.6 ± 0.9%; in experiment [2], 38.7 ± 2.4%; in experiment [3], 40.8 ± 2.9%. Also, the pest or weed control at 400 µg/mL in experiment [4] (setting [6]) is 45 ± 5%; in experiment [4] (setting [7]) it was over 50%.

Turning to `C[n+]1c2ccccc2c(NCCN)c2[nH]c3ccccc3c21` [Example 32], the inhibition at 500 µg/mL came out at 25.1 ± 4.3% in experiment [1], 30.1 ± 0.4% in experiment [2] and 28.7 ± 2.1% in experiment [3]. For the same compound, the pest or weed control at 400 µg/mL in experiment [4] (setting [5]) amounted to 30%.

In the case of `C[n+]1c2ccccc2c(NCC2CC2)c2[nH]c3ccccc3c21` [Example 28], the figures for the inhibition at 500 µg/mL in experiment [1], in experiment [2] and in experiment [3] were 20.5 ± 1.7%, 19.6 ± 0.2% and 25.3 ± 1.2%, respectively. The pest or weed control at 400 µg/mL in experiment [4] (setting [5]) was 60%; in experiment [4] (setting [8]), over 50%.

For the compound `Cc1ccc(S(=O)(=O)n2c3ccccc3c3c2cc2ccc(C)cc2[n+]3C)cc1` [Example 16], the inhibition at 500 µg/mL in experiment [1] stood at 28.1 ± 4.5%; in experiment [2], 30.1 ± 1.1%; in experiment [3], 18.9 ± 0.8%. Moreover, the pest or weed control at 400 µg/mL is 95 ± 5% in experiment [4] (setting [6]) and over 95% in experiment [4] (setting [7]).

For `CNCCCNc1c2ccccc2[n+](C)c2c1[nH]c1ccccc12` [Example 38], the inhibition at 500 µg/mL in experiment [1] was 35 ± 4.1%; in experiment [2] it was 40.2 ± 1%; in experiment [3], 30.7 ± 1.2%. The pest or weed control at 400 µg/mL in experiment [4] (setting [5]) was found to be 30%.

With `C[n+]1c2ccccc2c(NCCCN2CCCCC2)c2[nH]c3ccccc3c21` [Example 47], the inhibition at 500 µg/mL in experiment [1] is 36.4 ± 2.8%; in experiment [2], 33.3 ± 2%; in experiment [3], 35.7 ± 0.3%. In addition, the values for the pest or weed control at 400 µg/mL in experiment [4] (setting [5]) and in experiment [4] (setting [8]) were 45 ± 5% and over 50%, respectively.

For `C[n+]1c2ccccc2c(NCC2CCCCC2)c2[nH]c3ccccc3c21` [Example 30], the inhibition at 500 µg/mL is 20.9 ± 2.9% in experiment [1], 21.5 ± 1.1% in experiment [2] and 30 ± 0.8% in experiment [3]. Further, the pest or weed control at 400 µg/mL in experiment [4] (setting [5]) turned out to be 35 ± 5%.

For the compound `CN1CCCC(CNc2c3ccccc3[n+](C)c3c2[nH]c2ccccc23)C1` (stereo not shown) [Example 46], in experiment [1], the TMV activity result is recorded as “better TMV activity than the ribavirin”. Moreover, the inhibition at 500 µg/mL in experiment [1] came out at 44.7 ± 4%; in experiment [2], 40.1 ± 0.9%; in experiment [3], 46.3 ± 3.5%. In experiment [4] (setting [5]), the pest or weed control at 400 µg/mL came to 30%.

Values taken from patent EP4578857A1, “CRYPTOLEPINE SALT DERIVATIVE, AND PREPARATION METHOD THEREFOR AND USE THEREOF” (Nankai University, priority 2023, dated 2025).
